Tests used:
[1] = design: species or system rats; conditions: rat, in vivo
Source text: It may well be said that a preferred mode of ingesting sesamin and/or episesamin is by dissolving them in fat or oil; however, sesamin and/or episesamin is only slightly soluble and has such low solubility in fat or oil (wheat germ oil) that not only is it difficult to incorporate them at high concentrations but, at the same time, even if they are incorporated at low concentrations, a crystal may precipitate during storage on account of their low storage stability. This crystal precipitation can potentially result in lowered absorbability, so considering the storage stability, there has been no alternative to incorporating them at concentrations considerably lower than their solubility in fat or oil (wheat germ oil). Under these circumstances, when one made an attempt to increase the dose of sesamin and/or episesamin that could be ingested at a time, the amount of the solvent fat or oil also had to be increased, inevitably resulting in an excessive calorie intake. In addition, the volume of the sesamin and/or episesamin containing composition that is prescribed becomes so large per unit dosage or their quantities to be ingested become so large that inconveniences in ingestion have occasionally occurred. […]

[2] = test system: β-oxidation enzymes in the liver; conditions: as compared with sesamin; cited from earlier work
[3] = Solubility test in fats or oils (crystal formation after standing overnight at room temperature); format: physicochemical
Source text: Three samples were used and they included not only a mixture of sesamin and episesamin (sesamin:episesamin=51.1:48.2) but also sesamin and episesamin that were individually purified from the mixture. The wheat germ oil was a product of RIKEN VITAMIN CO., LTD.; the olive oil was a product of nakalai tesque; used as middle-chain fatty acids (MCTs) were ACTOR M-1 (a triglyceride of middle-chain fatty acid with C8:C10:C12=56:42:2) and ACTOR M-2 (a triglyceride of C8 middle-chain fatty acid), both being products of RIKEN VITAMIN CO., LTD. The diacylglycerol was a commercial fat or oil (Econa Cooking Oil of KAO CORPORATION, an edible oil containing about 80% diacylglycerol).
Into test tubes, there were weighed 2 g of the respective fats or oils and various concentrations of the samples that increased from 0.5 to 10% (by weight) by an increment of 0.25%. Then, the test tubes were heated to 120° C. so that sesamin completely dissolved in the fats or oils. Thereafter, the test tubes were allowed to stand overnight at room temperature to examine whether crystals would be formed or not.

Compound	bodily absorption, solution in fat or oil vs suspension in water [1]	gene expression and enzymatic activity of β-oxidation enzymes in the liver [2]	factor of solubility improvement over wheat germ oil [3]
c1cc2c(cc1[C@H]1OC[C@H]3[C@@H]1CO[C@@H]3c1ccc3c(c1)OCO3)OCO2 [Episesamin, episesamin]	significantly superior in bodily absorption	markedly increasing	2.5-5.5
c1cc2c(cc1[C@H]1OC[C@H]3[C@@H]1CO[C@@H]3c1ccc3c(c1)OCO3)OCO2 [Sesamin, sesamin]	significantly superior in bodily absorption	–	2.5-5.5

Reference: patent publication US9408803B2, “Compositions containing lignan-class compounds” (SUNTORY HOLDINGS LIMITED, priority 2006, dated 2016)
